From patent publication US11331269B2, “Methods and compositions targeting lung microbiota and its responding immune pathways for lung cancer treatment” (Massachusetts Institute of Technology, priority 2018, dated 2022) come the findings set out here.

The test system of experiment [1] is bacterial abundance in the gut. As to the kind of experiment: Fecal bacterial load by 16S rDNA-based qPCR. It counts as in vivo, mouse. As to conditions: SPF KP mice, metronidazole alone in drinking water. (Real-time PCR tracks product formation cycle by cycle.)
Method: Fecal pellets were collected from the colon at the time of tissue harvest. BALF and fecal samples were processed for DNA isolation using a previously established protocol (Palm, et al., Cell. 158(5):1000-1010 (2014); Turnbaugh, et al., Nature. 457(7228):480-4 (2009)). […] E. coli genomic DNA was used as a standard, with samples at 1, 0.1, 0.01, and 0.001 ng per reaction used to create a standard curve.
Experiment [2] relates to IL-17 producing γδ T cells. As to the kind of experiment: Flow cytometry of IL-17 producing γδ T cells in tumor-bearing lung. It counts as in vivo, mouse. As to conditions: KP mice, antibiotics in drinking water. As for the experimental part: Mice were injected retro-orbitally with a PE-CF594 conjugated anti-CD45 antibody (30-F11, BD Bioscience) 2 minutes prior to euthanasia to label the immune cells in the circulation. Lungs were collected, cut into small pieces, and digested with 125 U/mL collagenase IV (Worthington Biochemical) and 40 U/mL DNase I (Roche) for 30 minutes at 37° C. Dissociated lung tissue was then filtered with a 100 μm cell strainer. Spleen and lymph node samples were ground and passed through a 100 μm cell strainer. After blocking FcgRIII/II with an anti-CD16/CD32 mAb (eBioscience), single cell suspensions were stained with the following antibodies: CD45.2 (104), CD45.1 (A20), Ly6G (1A8), CD11b (M1/70), TCRβ (H57-597), TCRγδ (GL3 or UC7-13D5), CD3 (17A2), CD4 (RM4-5), CD8 (53-6.7), Vγ1 (Vg1.1, 2.11), Vγ4 (Vγ2, UC3-10A6), IFN-γ (XMG1.2), IL-17A (TC11-18H10.1), TNF-α (MP6-XT22), IL-17F (ebio18F10), CD44 (IM7), CD27 (LG.3A10), CD69 (H1.2F3), PD-1 (29F. 1A12), PD-L1 (10F.9G2), T-bet (eBio4B10), RORγt (B2D), PLZF (Mags.21F7) and Ki67 (B56) purchased from eBioscience, BD or Biolegend. […] Flow cytometry was performed on the LSR II or LSRFortessa (BD), and data were analyzed by the FlowJo software (Treestar). […]
Flow cytometry and FACS was performed as described above in Example 3. […] Flow cytometry was performed on the LSR II or LSRFortessa (BD), and data were analyzed by the FlowJo software (Treestar). […]
In general terms: In flow cytometry, cells or beads pass a laser one at a time.

Another experiment concerns IL-17A. As to the kind of experiment: IL-17A ELISA in BALF or serum of KP mice. It counts as in vivo, mouse. As to conditions: antibiotics in drinking water. Here is the method: IL-17 levels in serum or bronchoalveolar lavage fluid were measured using a mouse IL-17A ELISA kit (eBioscience) according to the manufacturer's instructions.
IL-17 levels were measured using a mouse IL-17A ELISA kit (eBioscience) according to the manufacturer's instructions.
IL-17A levels were measured using a mouse IL-17A ELISA kit (eBioscience) according to the manufacturer's instructions.
For orientation: An ELISA detects its analyte on a solid surface through an enzyme-linked reagent.

Experiment [3] has as its system lung adenocarcinoma in KP mice. As to the kind of experiment: Tumor development (tumor burden/grade by histology) in autochthonous KP GEM model of lung adenocarcinoma. To be noted: SPF KP mice, metronidazole alone (1 g/L) in drinking water starting 5 weeks post tumor initiation (FIG. 2E).
From the text: The genetically-engineered mouse (GEM) model of human LUAD has previously been described (DuPage, et al.). In this model, the mice harbor conditional alleles of Kras^LSL-G12D and p53^flox/flox (KP mice). Upon intratracheal infection with adenoviral vectors expressing the Cre-recombinase under the control of the Sftpc promoter, oncogenic KrasG12D is activated and the tumor suppressor p53 is deleted in lung epithelial cells to induce lung adenoma and adenocarcinoma.
Germ-free KP mice were housed in gnotobiotic isolators, which were sampled every 2 weeks and confirmed negative for bacterial and fungal contaminants by culture, fecal Gram stain, and PCR using universal 16S rRNA primers. […]
Tumor-bearing lung lobes and a portion of the spleen were fixed in 4% paraformaldehyde overnight and embedded in paraffin. […] Digitally scanned images of H&E or Ki67-stained slides were created with the Aperio ScanScope AT2 at 20× magnification and analyzed with the Aperio's WebScope software. For tumor burden quantification, tumor regions were outlined and the percentage of tumor area relative to total lung area was calculated for each mouse. For Ki67 index, tumor cells were classified based on the intensity of the nuclear Ki67 staining from 0 to 3+ by using a built-in Nuclear algorithm in the Webscope, and the percentage of nuclei with intense nuclear staining (3+) in total nuclei was calculated. […]
Experiment [4] has as its system KP tumor-derived cell lines. Put plainly: In vitro cell proliferation of tumor cell lines derived from primary lung tumors of KP mice. To be noted: live cells 72 hours post treatment. It counts as cell-based, mouse. As for the experimental part:
Tumor cell lines were derived from primary lung tumors of KP mice, and maintained in DMEM medium (Gibco) supplemented with 10% FBS (Sigma). Cells were serum-starved for 24 hours (1% FBS) before treated with recombinant human amphiregulin (Sigma-Aldrich) or recombinant mouse IL-22 (R&D Systems) at the indicated dose, or left untreated as controls. The number of live cells was determined 72 hours post treatment by counting the Trypan Blue (Gibco) negative cells or through the CellTiter-Glo Luminescent Cell Viability Assay (Promega) according to the manufacturer's instructions.

Consider `Cc1ncc([N+](=O)[O-])n1CCO` [metronidazole], for which the “overall bacterial abundance in the gut” value in experiment [1] is reported as “without substantially reducing the overall bacterial abundance in the gut”. For the same molecule, the “abundance of IL-17 producing γδ T cells in the tumor-bearing lung” value in experiment [2] is recorded as “dramatically decreased”. The “IL-17A levels in the BALF or serum” value with IL-17A is given as “lower IL-17A levels”. For the same molecule, the “tumor growth in the lung (tumor burden)” value in experiment [3] is recorded as “effectively suppressed tumor growth in the lung”.

B1: recombinant amphiregulin: recombinant human amphiregulin (Sigma-Aldrich), EGFR ligand (protein, UniProt P15514 101-187, looked up)
Amphiregulin: SVRVEQVVKPPQNKTESENTSDKPKRKKKGGKNGKNRRNRKKKNPCNAEFQNFCIHGECKYIEHLEAVTCKCQQEYFGERCGEKSMK
Turning to B1, in experiment [4] (recombinant human amphiregulin, serum-starved cells), the “proliferation of KP tumor-derived cell lines” value is “promoted proliferation of KP tumor-derived cell lines in a dose-dependent fashion”.

B2: recombinant IL-22: recombinant mouse IL-22 (R&D Systems) (protein, UniProt Q9JJY9 34-179, looked up)
Interleukin-22: LPVNTRCKLEVSNFQQPYIVNRTFMLAKEASLADNNTDVRLIGEKLFRGVSAKDQCYLMKQVLNFTLEDVLLPQSDRFQPYMQEVVPFLTKLSNQLSSCHISGDDQNIQKNVRRLKETVKKLGESGEIKAIGELDLLFMSLRNACV
As to B2, in experiment [4] (recombinant mouse IL-22, serum-starved KP tumor cell lines), the “tumor cell proliferation in vitro” value was “stimulated tumor cell proliferation in vitro”.
